From patent US20240199597A1, “SMALL MOLECULES FOR THE TREATMENT OF KINASE-RELATED DISEASES” (Athos Therapeutics, Inc., priority 2021, published 2024)

How the values were obtained:
HT-29 = experiment: Cancer cytotoxicity assay (Real-Time-Glo cell viability), HT-29; type: cell-based; settings: Homo sapiens, colorectal cancer cell line, 72 hr
Protocol: (§1) The cytotoxicity of Compounds 1, 3, 4, 6, 7, 8, 9, 10, 12 and 13 against cancer cell lines was determined. To determine the optimal plating density for cell viability assays, for each cell line, cells were counted and diluted to final densities of 2.5, 5, 10 and 20 thousand per 100 μL of their respective growth media per well in 96 well plates. The Promega Real-Time-Glo cell viability kit was used to determine the optimal concentration for cell plating so that each cell line would be within the linear part of its growth curve after 72 hrs in culture. For the determination of test compound IC50s, different cancer cell lines were plated in 96 well plates in the pre-determined optimal density for each cell line. Test compounds were then added at different concentrations for the creation of six-point curve and cell density was determined using the Promega Real-Time-Glo cell viability kit after 24, 48, and 72 hrs in culture.

OV-90 = experiment: Cancer cytotoxicity assay (Real-Time-Glo cell viability), OV-90; type: cell-based; settings: Homo sapiens, ovarian cancer cell line, 72 hr
Protocol: as §1

Kasumi-1 = experiment: Cancer cytotoxicity assay (Real-Time-Glo cell viability), Kasumi-1; type: cell-based; settings: Homo sapiens, leukemia cell, 72 hr
Protocol: as §1

CLK1 = target: T1, CLK1 (Homo sapiens, UniProt P49759); experiment: Kinase inhibition assay (Eurofins DiscoverX KinaseProfiler / KdElect), CLK1; type: biochemical
T1 construct: purchased Eurofins DiscoverX (contract service)
T1 sequence (P49759 whole entry): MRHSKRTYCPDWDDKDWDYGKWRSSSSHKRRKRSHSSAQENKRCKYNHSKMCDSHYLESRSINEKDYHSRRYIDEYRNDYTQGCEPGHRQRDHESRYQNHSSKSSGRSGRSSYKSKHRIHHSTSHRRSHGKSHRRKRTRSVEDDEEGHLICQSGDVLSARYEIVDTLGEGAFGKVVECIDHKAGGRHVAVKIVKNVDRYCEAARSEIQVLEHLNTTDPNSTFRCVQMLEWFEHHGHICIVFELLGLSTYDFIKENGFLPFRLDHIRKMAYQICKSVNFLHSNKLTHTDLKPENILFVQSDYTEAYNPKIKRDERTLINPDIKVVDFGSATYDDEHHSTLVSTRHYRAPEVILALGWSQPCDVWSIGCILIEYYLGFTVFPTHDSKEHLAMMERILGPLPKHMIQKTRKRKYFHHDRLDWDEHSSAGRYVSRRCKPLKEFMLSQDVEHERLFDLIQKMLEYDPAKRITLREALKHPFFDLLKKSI
Protocol: (§2) The activity of Compounds 1, 3, 4, 6, 7, 8, 9, 10 and 13 in inhibiting CLK1, CLK4, PLK4, and FLT3 kinases was determined. Stock solutions of the compounds being evaluated were prepared. The IC50 values were determined by the Eurofins DiscoverX services using either the KinaseProfiler or the KdElect kinase activity detection assays.

HCT-116 = experiment: Cancer cytotoxicity assay (Real-Time-Glo cell viability), HCT-116; type: cell-based; settings: Homo sapiens, colorectal cancer cell line, 72 hr
Protocol: as §1

CLK4 = target: T2, CLK4 (Homo sapiens, UniProt Q9HAZ1); experiment: Kinase inhibition assay (Eurofins DiscoverX KinaseProfiler / KdElect), CLK4; type: biochemical
T2 construct: purchased Eurofins DiscoverX (contract service)
T2 sequence (Q9HAZ1 whole entry): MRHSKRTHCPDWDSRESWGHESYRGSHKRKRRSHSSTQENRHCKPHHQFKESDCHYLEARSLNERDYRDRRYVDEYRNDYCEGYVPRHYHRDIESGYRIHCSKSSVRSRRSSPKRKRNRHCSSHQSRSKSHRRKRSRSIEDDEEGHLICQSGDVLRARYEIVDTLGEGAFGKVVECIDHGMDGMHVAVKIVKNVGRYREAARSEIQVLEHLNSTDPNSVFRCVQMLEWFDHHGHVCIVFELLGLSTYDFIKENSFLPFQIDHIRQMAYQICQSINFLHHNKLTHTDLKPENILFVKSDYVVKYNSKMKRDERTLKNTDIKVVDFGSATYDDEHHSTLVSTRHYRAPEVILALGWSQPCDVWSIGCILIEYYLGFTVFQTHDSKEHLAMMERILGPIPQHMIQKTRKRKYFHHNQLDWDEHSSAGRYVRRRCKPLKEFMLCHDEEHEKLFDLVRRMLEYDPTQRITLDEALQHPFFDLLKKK
Protocol: as §2

786-O = experiment: Cancer cytotoxicity assay (Real-Time-Glo cell viability), 786-O; type: cell-based; settings: Homo sapiens, 786-0; kidney cancer, 72 hr
Protocol: as §1

PLK4 = target: T3, PLK4 (Homo sapiens, UniProt O00444); experiment: Kinase inhibition assay (Eurofins DiscoverX KinaseProfiler / KdElect), PLK4; type: biochemical
T3 construct: purchased Eurofins DiscoverX (contract service)
T3 sequence (O00444 1-970): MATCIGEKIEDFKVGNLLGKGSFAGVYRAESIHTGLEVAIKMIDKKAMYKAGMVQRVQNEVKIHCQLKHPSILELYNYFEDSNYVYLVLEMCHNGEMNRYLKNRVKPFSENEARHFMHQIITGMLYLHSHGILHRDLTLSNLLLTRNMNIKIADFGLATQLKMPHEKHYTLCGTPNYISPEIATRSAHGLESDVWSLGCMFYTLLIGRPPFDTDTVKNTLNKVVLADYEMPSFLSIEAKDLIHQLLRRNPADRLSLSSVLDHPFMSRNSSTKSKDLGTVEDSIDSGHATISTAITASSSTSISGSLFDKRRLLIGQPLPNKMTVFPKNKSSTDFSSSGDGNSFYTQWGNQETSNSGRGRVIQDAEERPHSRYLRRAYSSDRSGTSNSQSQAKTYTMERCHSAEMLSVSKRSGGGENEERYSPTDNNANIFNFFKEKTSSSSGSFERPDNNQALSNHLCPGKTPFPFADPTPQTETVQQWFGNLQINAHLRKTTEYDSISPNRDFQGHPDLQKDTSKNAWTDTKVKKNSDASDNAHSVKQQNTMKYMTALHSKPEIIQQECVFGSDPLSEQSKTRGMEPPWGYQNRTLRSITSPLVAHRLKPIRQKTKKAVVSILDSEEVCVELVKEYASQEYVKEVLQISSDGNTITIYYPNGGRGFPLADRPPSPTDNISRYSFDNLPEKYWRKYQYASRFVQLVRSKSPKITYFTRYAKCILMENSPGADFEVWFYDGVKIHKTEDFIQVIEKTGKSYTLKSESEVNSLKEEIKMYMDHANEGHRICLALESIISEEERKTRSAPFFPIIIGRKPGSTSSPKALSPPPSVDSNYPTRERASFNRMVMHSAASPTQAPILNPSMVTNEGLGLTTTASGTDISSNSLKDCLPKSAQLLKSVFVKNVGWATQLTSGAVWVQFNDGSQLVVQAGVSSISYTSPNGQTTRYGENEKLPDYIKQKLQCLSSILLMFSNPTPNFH
Protocol: as §2

HT-29 cells = experiment: Reduction of colorectal tumor mass, HT-29 xenograft in nude mice; type: in vivo, Male nude mice; settings: 5 mg/kg I.P. every 48 h
Protocol: Male nude mice ages 6-8 weeks (NU/J. Jackson Laboratories) received rear, hind leg flank subcutaneous injections of 5×10^6 HT-29 cells diluted 1:1 in matrigel-cell culture media. Mice were then monitored daily until tumor nodules reached 100-200 mm^3 upon which point they were randomized into treatment groups based on their weight and tumor size and treatment. Mice (10 mice per group) were injected I.P. every 48 h with 100 μL of either vehicle control or Compound 8 (5 mg/kg). Tumor nodules were then monitored every 48 h for up to 28 days with tumor volumes calculated using the equation V=(L*W2)/2 where L is length and W is width of a tumor. Differences in xenograft volumes between the different groups were analyzed by single factor analysis of variance of the log-transformed tumor volume data. Mice with tumors that exceed 1000 mm^3 were euthanized to avoid excessive suffering.

SKOV-3 = experiment: Cancer cytotoxicity assay (Real-Time-Glo cell viability), SKOV-3; type: cell-based; settings: Homo sapiens, SK-OV-3; ovarian cancer cell line, 72 hr
Protocol: as §1

MV4-11 = experiment: Cancer cytotoxicity assay (Real-Time-Glo cell viability), MV4-11; type: cell-based; settings: Homo sapiens, leukemia cell, 72 hr
Protocol: as §1

A-498 = experiment: Cancer cytotoxicity assay (Real-Time-Glo cell viability), A-498; type: cell-based; settings: Homo sapiens, A498; kidney cancer, 72 hr
Protocol: as §1

FLT3 = target: T4, FLT3 (Homo sapiens, UniProt P36888); experiment: Kinase assay (Eurofins DiscoverX KinaseProfiler / KdElect), FLT3; type: binding; settings: read-out: FLT3 (Kd50 nM)
T4 construct: purchased Eurofins DiscoverX (contract service)
T4 sequence (P36888 27-993): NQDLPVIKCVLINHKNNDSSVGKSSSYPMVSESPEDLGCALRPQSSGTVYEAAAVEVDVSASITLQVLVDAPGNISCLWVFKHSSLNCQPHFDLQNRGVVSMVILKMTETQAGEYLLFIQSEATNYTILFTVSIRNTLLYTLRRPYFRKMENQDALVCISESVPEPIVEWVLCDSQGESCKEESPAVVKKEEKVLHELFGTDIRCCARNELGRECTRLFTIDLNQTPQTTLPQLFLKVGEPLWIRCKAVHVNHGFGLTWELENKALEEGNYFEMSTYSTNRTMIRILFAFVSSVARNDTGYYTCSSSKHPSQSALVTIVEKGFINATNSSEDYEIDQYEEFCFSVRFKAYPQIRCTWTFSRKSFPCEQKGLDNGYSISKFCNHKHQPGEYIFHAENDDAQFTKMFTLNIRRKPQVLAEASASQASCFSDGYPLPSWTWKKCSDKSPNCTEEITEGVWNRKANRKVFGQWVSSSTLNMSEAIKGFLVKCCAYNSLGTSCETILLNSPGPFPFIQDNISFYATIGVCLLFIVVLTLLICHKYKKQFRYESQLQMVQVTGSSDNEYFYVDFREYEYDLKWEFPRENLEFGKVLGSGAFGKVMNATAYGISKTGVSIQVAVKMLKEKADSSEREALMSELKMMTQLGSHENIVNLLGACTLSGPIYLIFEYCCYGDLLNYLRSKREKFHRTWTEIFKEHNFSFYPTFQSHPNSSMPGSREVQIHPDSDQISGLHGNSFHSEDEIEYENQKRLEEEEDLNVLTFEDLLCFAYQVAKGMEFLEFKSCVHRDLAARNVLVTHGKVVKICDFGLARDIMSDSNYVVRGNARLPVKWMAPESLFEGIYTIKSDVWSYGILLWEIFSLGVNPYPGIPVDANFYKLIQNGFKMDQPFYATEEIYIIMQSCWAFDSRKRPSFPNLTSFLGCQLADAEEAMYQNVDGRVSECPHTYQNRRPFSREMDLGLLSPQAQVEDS
Protocol: Stock solutions of the compounds being evaluated were prepared. The IC50 values were determined by the Eurofins DiscoverX services using either the KinaseProfiler or the KdElect kinase activity detection assays.

Kasumi-3 = experiment: Cancer cytotoxicity assay (Real-Time-Glo cell viability), Kasumi-3; type: cell-based; settings: leukemia cell, 72 hr
Protocol: as §1

IC50 (CLK1): < 1000 nM | IC50 (CLK4): < 1000 nM | IC50 (PLK4): < 1000 nM | Kd (FLT3): < 1000 nM
SMILES: CCc1cc(Nc2nc(N3CCC(F)(F)CC3)nc3cc(OCCCN4CCCC4)c(OC)cc23)n[nH]1 [Compound 8, 2-(4,4-difluoropiperidin-1-yl)-N-(5-ethyl-1H-pyrazol-3-yl)-6-methoxy-7-(3-(pyrrolidin-1-yl)propoxy)quinazolin-4-amine]
IC50 (HT-29): 1000 to 5000 nM | IC50 (OV-90): 1000 to 5000 nM | IC50 (Kasumi-1): 1000 to 5000 nM | IC50 (HCT-116): 1000 to 5000 nM | IC50 (786-O): 1000 to 5000 nM | tumor growth compared to vehicle control (FIG. 3A) (HT-29 cells; 16 day study): significantly slower tumor growth | tumors on day 16 compared to vehicle (HT-29 cells; day 16): significantly smaller tumors | increase of tumor (FIG. 3B, tumor mass) (HT-29 cells; vehicle 600%): 370% | IC50 (SKOV-3): 1000 to 5000 nM | IC50 (MV4-11): < 1000 nM | IC50 (A-498): 1000 to 5000 nM | IC50 (Kasumi-3): 1000 to 5000 nM
